According to paper PMC6364417, “Kinase inhibitor library screening identifies synergistic drug combinations effective in sensitive and resistant melanoma cells” (Journal of Experimental & Clinical Cancer Research : CR, 2019):
Like-named read-outs stand apart in the source and are kept apart here.

Legend:
[1] = test system: A375-XP cells (Vemurafenib-resistant); assay: Dose-response curves and IC50, PrestoBlue cell viability, 72 h; assay type: cell-based, human; settings: n.e. = did not suppress growth below 50% in the tested concentration range; for IC50: read-out: Half-maximal inhibitory concentration value (IC50), Mean
[2] = test system: A375-GP cells (Dabrafenib-resistant); assay: as above; assay type: cell-based, human; settings: n.e. = did not suppress growth below 50% in the tested concentration range; for IC50: read-out: Half-maximal inhibitory concentration value (IC50), Mean
[3] = test system: A375 cells (parental); assay: as above; assay type: cell-based, human; settings: for IC50: read-out: Half-maximal inhibitory concentration value (IC50), Mean
[4] = test system: IGR37-GP cells (Dabrafenib-resistant); assay: Kinase inhibitor library screening, PrestoBlue cell viability, 1 or 10 μM, 72 h; settings: for cell viability, IGR37 GP, 10μΜ / cell viability, IGR37 GP, 1μΜ / cell viability (kinase inhibitor library screening): 72 h, IGR37 GP; for cell viability, IGR37 GP, 1μΜ: in %
[5] = test system: 501Mel cells (parental); assay: as above; settings: 72 h; for cell viability, 501Mel Parental, 1μΜ / cell viability, 501Mel Parental, 10μΜ: in %; for cell viability, 501Mel Parental, 1μΜ / cell viability, 501Mel Parental, 10μΜ / cell viability (kinase inhibitor library screening): 501Mel Parental
In short: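 Each compound was applied to parental melanoma cells and to derivatives made resistant to Vemurafenib or Dabrafenib. After treatment, viability was read with PrestoBlue on a plate reader and expressed as % of untreated cells, with each line run at least in duplicate.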

[6] = test system: A375-GP cells (Dabrafenib-resistant); assay: as above; settings: for cell viability, A375 GP, 1μΜ / cell viability, A375 GP, 10μΜ / cell viability (kinase inhibitor library screening): 72 h, A375 GP; for cell viability, A375 GP, 1μΜ / cell viability, A375 GP, 10μΜ: in %
[7] = test system: IGR37-XP cells (Vemurafenib-resistant); assay: as above; settings: for cell viability, IGR37 XP, 10μΜ / cell viability, IGR37 XP, 1μΜ / cell viability (kinase inhibitor library screening): 72 h, IGR37 XP; for cell viability, IGR37 XP, 1μΜ: in %
[8] = test system: A375-XP cells (Vemurafenib-resistant); assay: as above; settings: for cell viability, A375 XP, 1μΜ / cell viability, A375 XP, 10μΜ / cell viability (kinase inhibitor library screening): 72 h, A375 XP; for cell viability, A375 XP, 1μΜ / cell viability, A375 XP, 10μΜ: in %
[9] = test system: A375 cells (parental); assay: as above; settings: for cell viability, A375 Parental, 1μΜ / cell viability, A375 Parental, 10μΜ / cell viability (kinase inhibitor library screening): 72 h, A375 Parental; for cell viability, A375 Parental, 1μΜ / cell viability, A375 Parental, 10μΜ: in %
[10] = test system: IGR37 cells (parental); assay: as above
[11] = test system: 501Mel-XP cells (Vemurafenib-resistant); assay: as above; settings: 72 h; for cell viability, 501Mel XP, 1μΜ / cell viability, 501Mel XP, 10μΜ: in %; for cell viability, 501Mel XP, 1μΜ / cell viability, 501Mel XP, 10μΜ / cell viability (kinase inhibitor library screening): 501Mel XP
[12] = test system: 501Mel-GP cells (Dabrafenib-resistant); assay: as above; settings: 72 h; for cell viability, 501Mel GP, 1μΜ / cell viability, 501Mel GP, 10μΜ: in %; for cell viability, 501Mel GP, 1μΜ / cell viability, 501Mel GP, 10μΜ / cell viability (kinase inhibitor library screening): 501Mel GP
[13] = Homo sapiens, A-375, n.e. = did not suppress growth below 50% in the tested concentration range
[14] = IGR37 Parental, 10μΜ, 72 h, in %
[15] = n.e. = did not suppress growth below 50% in the tested concentration range

SMILES: C[C@]1(O)C[C@@H](c2nc(-c3ccc4ccc(-c5ccccc5)nc4c3)c3c(N)nccn32)C1 [Linsitinib]
- IC50 ([1]; Homo sapiens): 2940 nM
- IC50 ([2]; Homo sapiens): 2080 nM
- IC50 [3, 13]: 4170 nM

SMILES: CC(=O)c1c(C)c2cnc(Nc3ccc(N4CCNCC4)cn3)nc2n(C2CCCC2)c1=O [Palbociclib]
- IC50 ([1]; Homo sapiens): 4990 nM
- IC50 ([2]; Homo sapiens): 2210 nM
- IC50 [3, 13]: 5320 nM

SMILES: CCC[C@H](NC(=O)/C(C#N)=C/c1cccc(Br)n1)c1ccccc1 [WP1130, reference compound]
- IC50 [1]: 1550 nM
- cell viability, IGR37 GP, 10μΜ ([4]; 10μΜ): 1.9%
- cell viability, IGR37 GP, 1μΜ ([4]; 1μΜ): 96.2
- cell viability, 501Mel Parental, 1μΜ ([5]; 1μΜ): 93.7
- cell viability, 501Mel Parental, 10μΜ ([5]; 10μΜ): 0.6
- cell viability, A375 GP, 1μΜ ([6]; 1μΜ): 87.1
- cell viability, A375 GP, 10μΜ ([6]; 10μΜ): 1.1
- cell viability, IGR37 XP, 10μΜ ([7]; 10μΜ): 1.1%
- cell viability, IGR37 XP, 1μΜ ([7]; 1μΜ): 99.1
- cell viability, A375 XP, 1μΜ ([8]; 1μΜ): 57.6
- cell viability, A375 XP, 10μΜ ([8]; 10μΜ): 0.429
- cell viability, A375 Parental, 1μΜ ([9]; 1μΜ): 89.3
- cell viability, A375 Parental, 10μΜ ([9]; 10μΜ): 0.545
- cell viability, IGR37 Parental, 1μΜ ([10]; IGR37 Parental, 1μΜ, 72 h, in %): 99.4
- cell viability, IGR37 Parental, 10μΜ [10, 14]: -1.6
- cell viability, 501Mel XP, 1μΜ ([11]; 1μΜ): 103.9
- cell viability, 501Mel XP, 10μΜ ([11]; 10μΜ): -0.185
- cell viability, 501Mel GP, 1μΜ ([12]; 1μΜ): 104.8
- cell viability, 501Mel GP, 10μΜ ([12]; 10μΜ): -0.156
- IC50 [2]: 1580 nM
- IC50 [3, 15]: 1620 nM

SMILES: CCN(CCCOc1ccc2c(Nc3cc(CC(=O)Nc4cccc(F)c4)n[nH]3)ncnc2c1)CCOP(=O)(O)O [Barasertib]
- Half-maximal inhibitory concentration value (IC50), Mean [1]: n.e.
- Half-maximal inhibitory concentration value (IC50), Mean [2]: n.e.
- Half-maximal inhibitory concentration value (IC50), Mean [3, 15]: n.e.

SMILES: Cn1cnc2c(F)c(Nc3ccc(Br)cc3Cl)c(C(=O)NOCCO)cc21 [AZD6244]
- Half-maximal inhibitory concentration value (IC50), Mean [1]: n.e.
- Half-maximal inhibitory concentration value (IC50), Mean [2]: n.e.
- Half-maximal inhibitory concentration value (IC50), Mean [3, 15]: n.e.

SMILES: CNC(=O)c1cc(Oc2ccc(NC(=O)Nc3ccc(Cl)c(C(F)(F)F)c3)c(F)c2)ccn1 [Regorafenib]
- IC50 ([1]; Homo sapiens): 1710 nM
- IC50 ([2]; Homo sapiens): 701 nM
- IC50 [3, 13]: 2730 nM

SMILES: Nc1nc(Nc2ccc(S(N)(=O)=O)cc2)nn1C(=O)c1c(F)cccc1F [JNJ-7706621]
- cell viability (kinase inhibitor library screening) ([4]; 1μΜ): 99.1%
- cell viability (kinase inhibitor library screening) ([4]; 10μΜ): 18.2%
- cell viability (kinase inhibitor library screening) ([5]; 10μΜ): 0.466%
- cell viability (kinase inhibitor library screening) ([6]; 1μΜ): 89.4%
- cell viability (kinase inhibitor library screening) ([6]; 10μΜ): 3.0%
- cell viability (kinase inhibitor library screening) ([7]; 1μΜ): 106.1%
- cell viability (kinase inhibitor library screening) ([7]; 10μΜ): 2.5%
- cell viability (kinase inhibitor library screening) ([8]; 1μΜ): 93.1%
- cell viability (kinase inhibitor library screening) ([8]; 10μΜ): 5.9%
- cell viability (kinase inhibitor library screening) ([9]; 10μΜ): 5.3%
- cell viability (kinase inhibitor library screening) ([9]; 1μΜ): 89.1%
- cell viability (kinase inhibitor library screening) ([10]; IGR37 Parental, 1μΜ, 72 h): 95.5%
- cell viability (kinase inhibitor library screening) ([10]; IGR37 Parental, 10μΜ, 72 h): 9.4%
- cell viability (kinase inhibitor library screening) ([11]; 1μΜ): 97.8%
- cell viability (kinase inhibitor library screening) ([11]; 10μΜ): -0.273%
- cell viability (kinase inhibitor library screening) ([12]; 1μΜ): 110.0%
- cell viability (kinase inhibitor library screening) ([12]; 10μΜ): 0.28%

SMILES: CCN1CCN(Cc2ccc(-c3cc4c(N[C@H](C)c5ccccc5)ncnc4[nH]3)cc2)CC1 [AEE788 (NVP-AEE788)]
- cell viability, IGR37 GP, 10μΜ ([4]; 10μΜ): 82.6%
- cell viability, IGR37 GP, 1μΜ ([4]; 1μΜ): 94.0
- cell viability, 501Mel Parental, 1μΜ ([5]; 1μΜ): 103.7
- cell viability, 501Mel Parental, 10μΜ ([5]; 10μΜ): 1.2
- cell viability, A375 GP, 1μΜ ([6]; 1μΜ): 110.2
- cell viability, A375 GP, 10μΜ ([6]; 10μΜ): 49.2
- cell viability, IGR37 XP, 10μΜ ([7]; 10μΜ): 25.4%
- cell viability, IGR37 XP, 1μΜ ([7]; 1μΜ): 82.4
- cell viability, A375 XP, 1μΜ ([8]; 1μΜ): 105.5
- cell viability, A375 XP, 10μΜ ([8]; 10μΜ): 70.7
- cell viability, A375 Parental, 1μΜ ([9]; 1μΜ): 108.2
- cell viability, A375 Parental, 10μΜ ([9]; 10μΜ): 70.3
- cell viability, IGR37 Parental, 10μΜ [10, 14]: 87.9
- cell viability, 501Mel XP, 1μΜ ([11]; 1μΜ): 105.3
- cell viability, 501Mel XP, 10μΜ ([11]; 10μΜ): 0.239
- cell viability, 501Mel GP, 1μΜ ([12]; 1μΜ): 114.3
- cell viability, 501Mel GP, 10μΜ ([12]; 10μΜ): 1.2

SMILES: CNC(=O)c1ccc(-c2cnc3ncc(Cc4ccc5ncccc5c4)n3n2)cc1F [INCB28060]
- cell viability (kinase inhibitor library screening) ([4]; 1μΜ): 97.1%
- cell viability (kinase inhibitor library screening) ([4]; 10μΜ): 85.7%
- cell viability (kinase inhibitor library screening) ([5]; 1μΜ): 99.4%
- cell viability (kinase inhibitor library screening) ([5]; 10μΜ): 93.5%
- cell viability (kinase inhibitor library screening) ([6]; 1μΜ): 103.9%
- cell viability (kinase inhibitor library screening) ([6]; 10μΜ): 95.7%
- cell viability (kinase inhibitor library screening) ([7]; 1μΜ): 98.3%
- cell viability (kinase inhibitor library screening) ([7]; 10μΜ): 47.6%
- cell viability (kinase inhibitor library screening) ([8]; 1μΜ): 106.9%
- cell viability (kinase inhibitor library screening) ([8]; 10μΜ): 103.3%
- cell viability (kinase inhibitor library screening) ([9]; 1μΜ): 103.1%
- cell viability (kinase inhibitor library screening) ([10]; IGR37 Parental, 1μΜ, 72 h): 106.9%
- cell viability (kinase inhibitor library screening) ([10]; IGR37 Parental, 10μΜ, 72 h): 100.3%
- cell viability (kinase inhibitor library screening) ([11]; 1μΜ): 68.2%
- cell viability (kinase inhibitor library screening) ([11]; 10μΜ): 62.9%
- cell viability (kinase inhibitor library screening) ([12]; 1μΜ): 81.7%
- cell viability (kinase inhibitor library screening) ([12]; 10μΜ): 67.0%

SMILES: O=C(c1ccc(/C=C/c2n[nH]c3ccccc23)cc1)N1CCNCC1 [KW 2449]
- viability at 1 µM ([4]; Homo sapiens, IGR-37, 72 h, read-out: cell viability, IGR37 GP, 1μΜ): 96.4%
- viability at 10 µM ([4]; Homo sapiens, IGR-37, 72 h, read-out: cell viability, IGR37 GP, 10μΜ): 45.2%
- viability at 1 µM ([5]; Homo sapiens, read-out: cell viability, 501Mel Parental, 1μΜ): 97.3%
- viability at 10 µM ([5]; Homo sapiens, read-out: cell viability, 501Mel Parental, 10μΜ): 57.7%
- viability at 1 µM ([6]; Homo sapiens, A-375, 72 h, read-out: cell viability, A375 GP, 1μΜ): 93.7%
- viability at 10 µM ([6]; Homo sapiens, A-375, 72 h, read-out: cell viability, A375 GP, 10μΜ): 28%
- viability at 1 µM ([7]; Homo sapiens, IGR-37, 72 h, read-out: cell viability, IGR37 XP, 1μΜ): 104%
- viability at 10 µM ([7]; Homo sapiens, IGR-37, 72 h, read-out: cell viability, IGR37 XP, 10μΜ): 18%
- viability at 1 µM ([8]; Homo sapiens, A-375, 72 h, read-out: cell viability, A375 XP, 1μΜ): 94.8%
- viability at 10 µM ([8]; Homo sapiens, A-375, 72 h, read-out: cell viability, A375 XP, 10μΜ): 40.9%
- viability at 1 µM ([9]; Homo sapiens, A-375, 72 h, read-out: cell viability, A375 Parental, 1μΜ): 87.5%
- viability at 10 µM ([9]; Homo sapiens, A-375, 72 h, read-out: cell viability, A375 Parental, 10μΜ): 30.6%
- viability at 1 µM ([10]; Homo sapiens, IGR-37, 72 h, read-out: cell viability, IGR37 Parental, 1μΜ): 99.6%
- viability at 10 µM ([10]; Homo sapiens, IGR-37, 72 h, read-out: cell viability, IGR37 Parental, 10μΜ): 71.9%
- viability at 1 µM ([11]; Homo sapiens, read-out: cell viability, 501Mel XP, 1μΜ): 96.9%
- viability at 10 µM ([11]; Homo sapiens, read-out: cell viability, 501Mel XP, 10μΜ): 58%
- viability at 1 µM ([12]; Homo sapiens, read-out: cell viability, 501Mel GP, 1μΜ): 103%
- viability at 10 µM ([12]; Homo sapiens, read-out: cell viability, 501Mel GP, 10μΜ): 66.3%
